Laboratory results as given in patent publication US20240417410A1, “TRICYCLIC COMPOUNDS FOR THE TREATMENT OF CANCER” (Hoffmann-La Roche Inc., priority 2023, published 2024).

What was measured:
[1] = Single dose pharmacokinetics (PK) study in female BALB/c mice; format: in vivo, mouse; conditions: female, BALB/c, mouse, plasma, female BALB/c mice
Procedure: The purpose of this study was to determine the pharmacokinetics of selected compounds following single intravenous bolus or oral gavage administration in female BALB/c mice. Briefly, two groups of female BALB/c mice (available from Shanghai Lingchang Biotechnology Co., Ltd) (N=3/group) were treated with a single dose of compound intravenously at 3 mg/kg (IV) or orally at 30 mg/kg (PO). Blood samples were collected at 5 min (only for IV), […], 30 min, 1 h, 2 h, 4 h, 7 h and 24 h post-dose. Blood samples were placed on ice until centrifugation to obtain plasma samples. The concentration of compound in plasma samples was determined using LC-MS/MS method. The pharmacokinetic parameters were calculated by non-compartmental analysis.

[2] = tested on: human hepatocytes; assay: Human hepatocyte stability assay; format: in vitro ADME; conditions: 1 μM compound, human hepatocytes 1×10^6 cells/mL
Procedure: The hepatocyte stability assay measures the rate of disappearance of a compound from incubations with cryopreserved suspension hepatocytes from human. Positive controls, including Midazolam, Raloxifene and Dextromethorphan, are included in every experiment. Incubations consist of 1 μM tested compound and suspension of human hepatocytes (1×10^6 cells/mL) in supplemented Williams' E Medium with 10% FBS and 0.5% Penicillin-streptomycin. The hepatocyte suspension was incubated with intermittent shaking 900 rpm at 37° C., in a 5% CO2 incubator. The reaction was stopped by adding methanol containing internal standard (2 μM Tolbutamide) at 2, 10, 20, 40, 60 and 120 minutes after compound addition, depletion of the parent compound was monitored by LC-MS/MS analysis.

[3] = target: KRAS G12V-BRAF complex (Homo sapiens (Human), UniProt P01116+P62937, G12V); assay: KRAS G12V-BRAF with CYPA interaction assay (TR-FRET, selectivity test, Example 132); format: biochemical
KRAS G12V-BRAF complex, sequence (P01116-2 other isoform, or with tags, fused parts or gaps G12V): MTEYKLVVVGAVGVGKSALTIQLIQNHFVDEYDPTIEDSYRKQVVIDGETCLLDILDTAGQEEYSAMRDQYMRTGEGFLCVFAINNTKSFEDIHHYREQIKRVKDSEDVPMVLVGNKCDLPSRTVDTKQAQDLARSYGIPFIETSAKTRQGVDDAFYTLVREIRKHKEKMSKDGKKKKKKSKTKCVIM
KRAS G12V-BRAF complex, sequence (P62937 whole entry): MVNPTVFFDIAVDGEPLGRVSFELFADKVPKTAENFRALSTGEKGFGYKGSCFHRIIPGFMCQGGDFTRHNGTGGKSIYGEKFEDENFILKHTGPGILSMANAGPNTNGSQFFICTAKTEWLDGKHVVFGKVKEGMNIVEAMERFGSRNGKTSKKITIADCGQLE
Procedure: (§1) In this example, TR-FRET was used to measure the compound or compound-CYPA dependent disruption of the KRAS G12V-BRAF complex to assess inhibition efficacy. The IC50 ratio between WT KRAS/HRAS/NRAS and KRAS G12V mutant was calculated as selective index, which indicated tolerability and safety profile. Disruption of WT KRAS/HRAS/NRAS-BRAF complex by compounds was detected respectively. In assay buffer containing 25 mM HEPES (PH-7.4,4-(2-hydroxyethyl)-1-piperazineethanesulfonic acid, Thermo, 15630080), 0.002% Tween20, 0.1% BSA, 100 mM NaCl, 5 mM MgCl2, 10 μM GMPPNP (Guanosine 5′-[β,γ-imido]triphosphate trisodium salt hydrate, Sigma, G0635), tagless CYPA and GMPPNP loaded 6His-RAS proteins, and GST-BRAF^RBD were mixed in a well of a 384-well assay plate at final concentrations of 50 nM, 6.25 nM and 1 nM, respectively. Compound was present in plate wells as a 16-point 3-fold dilution series starting at a final concentration of 10 μM and incubated for 3 hours. A mixture of MAb Anti-6His-XL665 (Cisbio, 61HISXLB) and Mab anti-GST-TB cryptate (Cisbio, 61GSTTLB) was then added at a final concentration of 6.67 nM and 0.21 nM, respectively, and the plate was incubated for an additional 1.5 hours. TR-FRET signal was read on a PHERstar FSX microplate reader (Ex320 nm, Em 665/615 nm). Compounds that facilitate disruption of the RAS-BRAF complex were identified as those eliciting a decrease in the TR-FRET ratio relative to DMSO control wells.

[4] = target: WT KRAS-BRAF complex (Homo sapiens (Human), UniProt P01116+P62937); assay: WT KRAS-BRAF with CYPA interaction assay (TR-FRET); format: biochemical; conditions: WT KRAS
WT KRAS-BRAF complex, sequence (P01116-2 whole entry, looked up): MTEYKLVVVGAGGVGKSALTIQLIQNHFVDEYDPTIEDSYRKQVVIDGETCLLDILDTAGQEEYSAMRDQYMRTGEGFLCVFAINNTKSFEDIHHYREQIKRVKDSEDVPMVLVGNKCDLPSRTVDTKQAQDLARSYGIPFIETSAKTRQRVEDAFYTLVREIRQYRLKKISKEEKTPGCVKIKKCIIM
WT KRAS-BRAF complex, sequence (P62937 whole entry, looked up): as the sequence (P62937 whole entry) above
Procedure: as §1

[5] = target: WT HRAS-BRAF complex (Homo sapiens (Human), UniProt P01112+P62937); assay: WT HRAS-BRAF with CYPA interaction assay (TR-FRET); format: biochemical; conditions: WT HRAS
WT HRAS-BRAF complex, sequence (P01112 whole entry, looked up): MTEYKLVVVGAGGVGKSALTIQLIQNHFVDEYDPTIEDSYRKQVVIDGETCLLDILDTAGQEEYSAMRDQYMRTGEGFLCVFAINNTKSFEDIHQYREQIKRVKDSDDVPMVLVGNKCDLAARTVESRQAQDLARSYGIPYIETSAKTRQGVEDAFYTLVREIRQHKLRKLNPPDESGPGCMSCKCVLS
WT HRAS-BRAF complex, sequence (P62937 whole entry, looked up): as the sequence (P62937 whole entry) above
Procedure: as §1

[6] = target: WT NRAS-BRAF complex (Homo sapiens (Human), UniProt P01111+P62937); assay: WT NRAS-BRAF with CYPA interaction assay (TR-FRET); format: biochemical; conditions: WT NRAS
WT NRAS-BRAF complex, sequence (P01111 whole entry, looked up): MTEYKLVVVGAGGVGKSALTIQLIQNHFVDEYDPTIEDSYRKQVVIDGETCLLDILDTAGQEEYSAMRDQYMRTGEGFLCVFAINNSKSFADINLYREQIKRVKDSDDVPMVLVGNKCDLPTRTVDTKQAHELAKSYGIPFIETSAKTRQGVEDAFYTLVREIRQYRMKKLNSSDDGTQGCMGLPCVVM
WT NRAS-BRAF complex, sequence (P62937 whole entry, looked up): as the sequence (P62937 whole entry) above
Procedure: as §1

[7] = target: hERG potassium channel (Homo sapiens (Human), UniProt Q12809); assay: hERG potassium channel assay (manual patch clamp, CHO cells); format: cell-based; conditions: 34° C., manual patch, CHO cells
hERG potassium channel, sequence (Q12809 whole entry): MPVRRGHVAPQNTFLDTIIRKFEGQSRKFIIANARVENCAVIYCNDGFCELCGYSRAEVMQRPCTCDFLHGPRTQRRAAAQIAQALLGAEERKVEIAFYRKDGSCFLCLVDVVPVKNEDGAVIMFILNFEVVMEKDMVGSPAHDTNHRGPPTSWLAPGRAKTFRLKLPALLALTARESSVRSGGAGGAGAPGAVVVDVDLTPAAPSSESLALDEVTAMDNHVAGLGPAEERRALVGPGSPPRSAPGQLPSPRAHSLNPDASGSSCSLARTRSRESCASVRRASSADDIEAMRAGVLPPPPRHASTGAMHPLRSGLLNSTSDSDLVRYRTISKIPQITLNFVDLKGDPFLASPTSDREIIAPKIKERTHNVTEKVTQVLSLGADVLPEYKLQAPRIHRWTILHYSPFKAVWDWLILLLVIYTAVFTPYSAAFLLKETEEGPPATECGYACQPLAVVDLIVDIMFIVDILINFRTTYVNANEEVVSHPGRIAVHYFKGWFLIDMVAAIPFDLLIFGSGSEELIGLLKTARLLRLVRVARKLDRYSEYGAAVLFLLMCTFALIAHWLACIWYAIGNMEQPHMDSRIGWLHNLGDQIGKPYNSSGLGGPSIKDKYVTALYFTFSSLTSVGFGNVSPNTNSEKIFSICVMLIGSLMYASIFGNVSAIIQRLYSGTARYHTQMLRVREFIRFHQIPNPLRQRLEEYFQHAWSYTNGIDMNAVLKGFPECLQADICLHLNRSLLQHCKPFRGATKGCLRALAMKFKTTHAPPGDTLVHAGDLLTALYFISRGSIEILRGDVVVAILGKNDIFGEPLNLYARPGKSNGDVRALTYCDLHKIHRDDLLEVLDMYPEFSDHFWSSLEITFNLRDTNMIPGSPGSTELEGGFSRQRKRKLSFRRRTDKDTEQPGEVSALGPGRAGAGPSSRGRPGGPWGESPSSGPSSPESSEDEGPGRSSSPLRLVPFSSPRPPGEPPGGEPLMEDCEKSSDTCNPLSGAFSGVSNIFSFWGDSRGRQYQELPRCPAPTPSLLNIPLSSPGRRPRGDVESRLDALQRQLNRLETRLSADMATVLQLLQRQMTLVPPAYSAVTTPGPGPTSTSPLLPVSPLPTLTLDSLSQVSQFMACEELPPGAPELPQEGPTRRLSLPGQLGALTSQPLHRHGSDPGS
Procedure: The purpose of the test was to screen compounds for the activity on hERG channels as a non-clinical cardiac safety evaluation.
Advanced hERG experiments were performed at near-physiological temperature (34° C.) by HEKA EPC10 manual patch system (heka elektronik, EPC10 amplifier). The CHO cells (B′SYS GmbH) stably transfected hERG channel were initially held at −80 mV, depolarized to voltages between −40 mV (100 ms) to 20 mV (500 ms) to activate the hERG outward currents, and then repolarized to −40 mV (500 ms) to record the hERG tail currents, with an interpulse interval of 15s. The recording environment included: Extracellular solution (in mM): 150 NaCl, 4 KCl, 1.2 CaCl2), 1 MgCl2 and 10 HEPES; pH adjusted to 7.2-7.4 with 5 M NaOH; Intracellular solution (in mM): 125 KCl, 10 NaCl, 5 EGTA, 10 HEPES, 0.1 Na2GTP and 5 MgATP; pH adjusted to 7.2 with 1 M KOH. Current inhibitions in the presence of more than 4 concentrations in quadruplicate were used to fit hERG IC50 by Graphpad prism V8.0.

[8] = tested on: AGS cells (KRAS G12D); assay: Cell viability assay (Cell Counting Kit-8, 3-day); format: cell-based, human; conditions: 72 hrs incubation
In short: (§2)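 IC50 derived by 4-parameter sigmoidal fit of CCK-8 signal (OD450−OD650, 2 h development) after 72 h compound exposure in 0.5% DMSO. Seeding density was 5,000 cells/well for NCI-H358 and 2,000 cells/well for AGS and SW620, plated overnight before dosing.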

[9] = tested on: NCI-H358 cells (KRAS G12C); assay: Cell viability assay (Cell Counting Kit-8, 3-day); format: cell-based, human; conditions: NCI-H358, 72 hrs incubation
In short: as §2

[10] = tested on: SW620 cells (KRAS G12V); assay: Cell viability assay (Cell Counting Kit-8, 3-day); format: cell-based, human; conditions: SW620, 72 hrs incubation
In short: as §2

[11] = target: KRAS G12C-BRAF complex (Homo sapiens (Human), UniProt P01116+P62937, G12C); assay: KRAS-BRAF with CYPA (500 nM) interaction assay (TR-FRET, Example 136); format: biochemical; conditions: KRAS G12C-BRAF disruption
KRAS G12C-BRAF complex, sequence (P01116-2 other isoform, or with tags, fused parts or gaps G12C): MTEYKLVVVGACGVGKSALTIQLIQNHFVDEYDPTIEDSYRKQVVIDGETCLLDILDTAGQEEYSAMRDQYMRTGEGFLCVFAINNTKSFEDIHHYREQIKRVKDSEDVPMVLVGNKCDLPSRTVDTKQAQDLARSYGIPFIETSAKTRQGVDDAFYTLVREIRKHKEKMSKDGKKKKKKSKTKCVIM
KRAS G12C-BRAF complex, sequence (P62937 whole entry): as the sequence (P62937 whole entry) above

[12] = tested on: phosphorylation of ERK, KRAS G12C in NCI-H358 cells; assay: pERK inhibition assay; format: cell-based
In short: (§3)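 Cells in RPMI-1640 with 10% FBS were plated overnight (30,000/well H358, 20,000 AGS, 30,000 SW620) and treated 4 h with compounds at 0.5% DMSO. After formaldehyde fixation and methanol permeabilization, pERK was detected by in-cell ELISA with HRP secondary and TMB (OD450); IC50 from 4-parameter fit.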

[13] = tested on: phosphorylation of ERK, KRAS G12D in AGS cells; assay: pERK inhibition assay; format: cell-based
In short: as §3

[14] = tested on: phosphorylation of ERK, KRAS G12V in SW620; assay: pERK inhibition assay; format: cell-based; conditions: SW620 cells
In short: as §3

Row | SMILES | IC50 [11] | IC50 ([8]; Homo sapiens, 72 h) | IC50 ([9]; Homo sapiens, NCI-H358, 72 h) | IC50 ([10]; Homo sapiens, SW-620) | IC50 ([12]; Homo sapiens, NCI-H358, 4 h) | IC50 ([13]; Homo sapiens, AGS, 4 h) | IC50 ([14]; Homo sapiens, SW-620, 4 h) | other results
1 | CCn1c(-c2cc(N3CCN(C)CC3)cnc2[C@H](C)OC)c2c3cc(ccc31)-c1csc(n1)C[C@H](NC(=O)[C@H]1[C@H](C)[C@@H]1C)C(=O)N1CCC[C@H](N1)C(=O)OCC(C)(C)C2 [Example A252, reference compound] |  |  |  |  |  |  |  | clearance ([1]; iv, 3 mg/kg): 37.8 mL/min/kg; AUC(0-t) ([1]; po, 30 mg/kg): 14600 ng·h/mL; Cmax ([1]; po, 30 mg/kg, po, read-out: Cmax): 2440 ng/mL; Hepatic clearance (Human) [2]: 9.2 mL/min/kg; IC50 [3]: 9 nM; IC50 [4]: 18 nM; IC50 [5]: 23 nM; IC50 [6]: 19 nM; IC50 [7]: 11000 nM; IC20 ([7]; human, CHO cells stably transfected with hERG channel): 3000 nM
2 | COC(C)c1ncc(N2CCN(C)CC2)cc1-c1c2c3cc(cc4c3n1CCO4)-c1csc(n1)CC(NC(=O)C1CC1C)C(=O)N1CCCC(N1)C(=O)OCC(C)(C)C2 [Example 17, (1S,2S)-N-[(7S,13S)-(20M)-20-[2-[(1S)-1-methoxyethyl]-5-(4-methylpiperazin-1-yl)-3-pyridyl]-17,17-dimethyl-8,14-dioxo-15,24-dioxa-4-thia-9,21,30,31-tetrazahexacyclo[23.3.1.1^2,5.1^9,13.0^19,27.0^21,26]hentriaconta-1 (28),2,5 (31),19,25 (29),26-hexaen-7-yl]-2-methyl-cyclopropanecarboxamide] | 25.4 nM |  |  |  |  |  |  | IC50 [8]: 21.7 nM; IC50 [9]: 10.3 nM; IC50 [10]: 1.1 nM; IC50 ([12]; 4 hours): 2.9 nM; IC50 ([13]; 4 hours): 2.7 nM; IC50 ([14]; 4 hours): 1.8 nM
3 | CO[C@@H](C)c1ncc(N2CCN(C)CC2)cc1-c1c2c3cc(cc4c3n1CCO4)-c1csc(n1)C[C@H](NC(=O)[C@H]1[C@@H]3COC[C@@H]31)C(=O)N1CCC[C@H](N1)C(=O)OCC(C)(C)C2 (atropisomer, axis not shown; (M)) [Example 35, (1S,5R,6r)-N-[(7S,13S)-(20M)-20-[2-[(1S)-1-methoxyethyl]-5-(4-methylpiperazin-1-yl)-3-pyridyl]-17,17-dimethyl-8,14-dioxo-15,24-dioxa-4-thia-9,21,30,31-tetrazahexacyclo[23.3.1.1^2,5.1^9,13.0^19,27.0^21,26]hentriaconta-1 (28),2,5 (31), 19,25 (29),26-hexaen-7-yl]-3-oxabicyclo[3.1.0]hexane-6-carboxamide] | 14.5 nM | 13 nM | 4.3 nM | 1 nM | 1 nM | 4.7 nM | < 0.6 nM | 
4 | CCN1CCN(c2cnc([C@H](C)OC)c(-c3c4c5cc(cc6c5n3CCC6)-c3csc(n3)C[C@H](NC(=O)[C@H]3[C@H](C)[C@@H]3C)C(=O)N3CCC[C@H](N3)C(=O)OCC(C)(C)C4)c2)CC1 (atropisomer, axis not shown; (M)) [Example 113, (1r,2R,3S)-N-[(7S,13S)-(20M)-20-[5-(4-ethylpiperazin-1-yl)-2-[(1S)-1-methoxyethyl]-3-pyridyl]-17,17-dimethyl-8,14-dioxo-15-oxa-4-thia-9,21,30,31-tetrazahexacyclo[23.3.1.1^2,5.1^9,13.0^19,27.0^21,26]hentriaconta-1 (28),2,5 (31), 19,25 (29),26-hexaen-7-yl]-2,3-dimethyl-cyclopropanecarboxamide] | 4.3 nM | 1.5 nM | 2.1 nM | 0.3 nM | 0.6 nM | 2.2 nM | 0.4 nM | 
5 | CO[C@@H](C)c1ncc(N2CCN(CC(F)(F)F)CC2)cc1-c1c2c3cc(cc4c3n1CCO4)-c1csc(n1)C[C@H](NC(=O)[C@H]1C[C@@H]1C)C(=O)N1CCC[C@H](N1)C(=O)OCC(C)(C)C2 (atropisomer, axis not shown; (M)) [Example 5, (1S,2S)-N-[(7S,13S)-(20M)-20-[2-[(1S)-1-methoxyethyl]-5-[4-(2,2,2-trifluoroethyl)piperazin-1-yl]-3-pyridyl]-17,17-dimethyl-8,14-dioxo-15,24-dioxa-4-thia-9,21,30,31-tetrazahexacyclo[23.3.1.1^2,5.1^9,13.0^19,27.0^21,26]hentriaconta-1 (28),2,5 (31), 19,25 (29),26-hexaen-7-yl]-2-methyl-cyclopropanecarboxamide] | 34.8 nM | 70 nM | 17.3 nM | 4.6 nM | 6.2 nM | 21.2 nM | 2.8 nM | 
